Measured values from patent US20080293060A1, “Methods and Compositions for Identification of Hydrocarbon Response, Transport and Biosynthesis Genes” (priority 2007, published 2008).

Tested on: ARE in Acinetobacter WH405
Type: cell-based, Acinetobacter strain WH405 (derivative of strain ADP1)
Conditions: hydrocarbon at 5 and 50 mM, WH405 in LB, 37° C. overnight
Method: Acinetobacter strain WH405, an ARE::lacZ derivative of strain ADP1 (Ratajczak et al 1998), was scraped from an overnight plate into LB and diluted to OD600 0.07 (the cells can also be from an overnight culture, as long as cells are diluted in fresh LB). Alkane and alkene induction of the ARE was tested by adding a number of alkenes at 5 and 50 mM to culture tubes, followed by addition of the diluted WH405 solution into tubes (5 mL). Tubes were incubated in a 37° C. shaker overnight. The β-galactosidase activity assay developed by Miller was used to determine the level of induction by the different hydrocarbon from the overnight cultures.

Row | Compound | induction of the ARE (β-galactosidase activity, Miller assay)
1 | C=CCCCCCCCCCCCCCCCCCC [1-eicosene] | induced
2 | C=CCCCCCCCCCCCCCCC [1-heptadecene] | induced
3 | C=CCCCCCCCCCCCCCC [1-hexadecene] | induced
4 | C=CCCCCCCCCCCCCCCCCC [1-nonadecene] | induced
5 | C=CCCCCCCCCCCCCCCCC [1-octadecene] | induced
6 | CCCCCCCC/C=C\CCCCCCCCCCCCC [9-cis tricosene] | induced
7 | CCCCCCCC/C=C\CCCCCCCCCCC [9-cis-heneicosene] | induced
8 | CCCCCCCCCC [decane] | induced
9 | CCCCCCCCCCCCCCCC [hexadecane] | induced
10 | CCCCCC [hexane] | not
11 | CCCCCCCC [octane] | induces
